Assay results reported in ChEMBL document CHEMBL1201862, “PubChem BioAssay data set” (2004).
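Values below derive from 48-hour exposures of cells grown in 96-well plates, with endpoints linearly interpolated between the two concentrations bracketing the appropriate inhibition level. GI50 is the concentration that inhibits growth by half.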 Activity calls are given as the source filed them. No stated cut-off is given here; in the data, active = GI50 up to about 1.1 µM and inactive = higher.

Experiments:
Experiment in all cases: NCI-60 cell line screen, 48 h
HCT-116 = system: HCT-116
IGROV-1 = system: IGROV-1
OVCAR-4 = system: OVCAR-4
NCI-H460 = system: NCI-H460
HT-29 = system: HT-29
SF-539 = system: SF-539
M14 = system: M14
UACC-62 = system: UACC-62
TK-10 = system: TK-10
SNB-75 = system: SNB-75
SF-295 = system: SF-295
KM12 = system: KM12
SN12C = system: SN12C
SF-268 = system: SF-268
SK-MEL-2 = system: SK-MEL-2
NCI-H226 = system: NCI-H226
NCI-H522 = system: NCI-H522
NCI-H23 = system: NCI-H23
COLO 205 = system: COLO 205

Structure (SMILES) | GI50 (HCT-116) | GI50 (IGROV-1) | GI50 (OVCAR-4) | GI50 (NCI-H460) | GI50 (HT-29) | GI50 (SF-539) | GI50 (M14) | GI50 (UACC-62) | GI50 (TK-10) | GI50 (SNB-75) | GI50 (SF-295) | GI50 (KM12) | GI50 (SN12C) | GI50 (SF-268) | GI50 (SK-MEL-2) | GI50 (NCI-H226) | GI50 (NCI-H522) | GI50 (NCI-H23) | GI50 (COLO 205)
NC(=O)c1ncn(C2OC(CO)C(O)C2O)c1O (stereo not given) | 72.6 µM (inactive) | > 100 µM (inactive) | > 100 µM (inactive) | 53.7 µM (inactive) | 4.69 µM (inactive) | > 100 µM (inactive) | > 100 µM (inactive) | > 100 µM (inactive) | > 100 µM (inactive) | > 100 µM (inactive) | > 100 µM (inactive) | 46.6 µM (inactive) | > 100 µM (inactive) | > 100 µM (inactive) | > 100 µM (inactive) | 54.6 µM (inactive) | – | – | –
CCN(CC)C(=S)N/N=C(\C)c1ccccc1O | – | 24.5 µM (inactive) | > 100 µM (inactive) | 4.84 µM (inactive) | 19.5 µM (inactive) | 18 µM (inactive) | 17.5 µM (inactive) | 10.9 µM (inactive) | 62.1 µM (inactive) | 44.2 µM (inactive) | 15.5 µM (inactive) | 15.5 µM (inactive) | 20.9 µM (inactive) | 17.9 µM (inactive) | 19 µM (inactive) | 20.7 µM (inactive) | 8.57 µM (inactive) | 25 µM (inactive) | 40.9 µM (inactive)
Nc1ccc(C(=O)N/C(=C\C=C\c2ccco2)c2nc3c4c(ccc3[nH]2)C(=O)c2ccccc2C4=O)cc1 | 24.8 µM (inactive) | 21.4 µM (inactive) | 52.4 µM (inactive) | – | 49.7 µM (inactive) | 17.2 µM (inactive) | 55 µM (inactive) | 25 µM (inactive) | 23.1 µM (inactive) | 14.2 µM (inactive) | 31.7 µM (inactive) | 13.6 µM (inactive) | 29.4 µM (inactive) | 10.2 µM (inactive) | 26.5 µM (inactive) | – | 15.8 µM (inactive) | 41.5 µM (inactive) | 61.1 µM (inactive)
CCCCCCCCCCCCOC(=N)N1CCOCC1 | 8.39 µM (inactive) | 12.6 µM (inactive) | 7.62 µM (inactive) | 15 µM (inactive) | 1.82 µM (inactive) | 0.982 µM (active) | 3.95 µM (inactive) | 9.77 µM (inactive) | 16.8 µM (inactive) | 13.7 µM (inactive) | 17 µM (inactive) | 5.53 µM (inactive) | 4.39 µM (inactive) | 15 µM (inactive) | 9.51 µM (inactive) | 20.7 µM (inactive) | 14.6 µM (inactive) | 13.4 µM (inactive) | 1.75 µM (inactive)
O=C1C(c2ccccc2)=C(c2ccccc2)C(c2ccc(Cc3ccc(C4=C(c5ccccc5)C(=O)C(c5ccccc5)=C4c4ccccc4)cc3)cc2)=C1c1ccccc1 | > 100 µM (inactive) | > 100 µM (inactive) | > 100 µM (inactive) | > 100 µM (inactive) | > 100 µM (inactive) | > 100 µM (inactive) | – | > 100 µM (inactive) | 48.6 µM (inactive) | > 100 µM (inactive) | 69.5 µM (inactive) | > 100 µM (inactive) | – | > 100 µM (inactive) | > 100 µM (inactive) | 50.6 µM (inactive) | > 100 µM (inactive) | > 100 µM (inactive) | > 100 µM (inactive)
COC(=O)C(=O)C(C#N)c1ccc(Cl)c(Cl)c1 (stereo not given) | > 100 µM (inactive) | > 100 µM (inactive) | – | – | > 100 µM (inactive) | > 100 µM (inactive) | > 100 µM (inactive) | > 100 µM (inactive) | > 100 µM (inactive) | 80 µM (inactive) | > 100 µM (inactive) | > 100 µM (inactive) | > 100 µM (inactive) | > 100 µM (inactive) | > 100 µM (inactive) | > 100 µM (inactive) | > 100 µM (inactive) | > 100 µM (inactive) | –
NC(CCCCN/C=C1/N=C(c2ccccc2)OC1=O)C(=O)O (stereo not given) | > 100 µM (inactive) | > 100 µM (inactive) | > 100 µM (inactive) | > 100 µM (inactive) | > 100 µM (inactive) | > 100 µM (inactive) | > 100 µM (inactive) | > 100 µM (inactive) | > 100 µM (inactive) | > 100 µM (inactive) | > 100 µM (inactive) | – | > 100 µM (inactive) | > 100 µM (inactive) | > 100 µM (inactive) | > 100 µM (inactive) | 26.1 µM (inactive) | > 100 µM (inactive) | > 100 µM (inactive)
CC(C)c1cccc(C(C)C)c1NC(=O)C(=O)Cc1nc2ccc([N+](=O)[O-])cc2nc1O | 39.2 µM (inactive) | > 100 µM (inactive) | 64.3 µM (inactive) | 70.1 µM (inactive) | > 100 µM (inactive) | 78.3 µM (inactive) | 28.1 µM (inactive) | 24.5 µM (inactive) | > 100 µM (inactive) | > 100 µM (inactive) | > 100 µM (inactive) | 13.5 µM (inactive) | – | – | 61 µM (inactive) | > 100 µM (inactive) | 6.35 µM (inactive) | 31.9 µM (inactive) | 41.8 µM (inactive)
C/C(=N\NC(=N)N)C(CN(CC(C)C)CC(C)C)C(=O)Nc1ccc(C)cc1C (stereo not given) | > 100 µM (inactive) | > 100 µM (inactive) | > 100 µM (inactive) | > 100 µM (inactive) | > 100 µM (inactive) | > 100 µM (inactive) | > 100 µM (inactive) | > 100 µM (inactive) | > 100 µM (inactive) | > 100 µM (inactive) | > 100 µM (inactive) | > 100 µM (inactive) | > 100 µM (inactive) | > 100 µM (inactive) | > 100 µM (inactive) | > 100 µM (inactive) | > 100 µM (inactive) | > 100 µM (inactive) | > 100 µM (inactive)
COC(=O)NC(=O)c1cn(C2OC(CO)C(O)C2O)c(=O)[nH]c1=O (stereo not given) | > 100 µM (inactive) | > 100 µM (inactive) | > 100 µM (inactive) | > 100 µM (inactive) | > 100 µM (inactive) | > 100 µM (inactive) | > 100 µM (inactive) | > 100 µM (inactive) | > 100 µM (inactive) | > 100 µM (inactive) | > 100 µM (inactive) | > 100 µM (inactive) | > 100 µM (inactive) | > 100 µM (inactive) | > 100 µM (inactive) | > 100 µM (inactive) | > 100 µM (inactive) | > 100 µM (inactive) | > 100 µM (inactive)
CN(C)CCNC(=O)c1c2ccccc2cc2ccccc12 | 26.8 µM (inactive) | 41 µM (inactive) | 31 µM (inactive) | 18.1 µM (inactive) | 39.1 µM (inactive) | 32.7 µM (inactive) | 16.7 µM (inactive) | 20 µM (inactive) | 30.5 µM (inactive) | 42.9 µM (inactive) | 61.2 µM (inactive) | 42.8 µM (inactive) | 34.4 µM (inactive) | 44.7 µM (inactive) | 8 µM (inactive) | 12 µM (inactive) | – | 41.4 µM (inactive) | 18.2 µM (inactive)
NNC(=O)C(=O)N/N=C(\CCC(=O)Nc1ccc(Cl)cc1)Cc1nc2ccccc2s1 | 28.1 µM (inactive) | 13.6 µM (inactive) | – | 28 µM (inactive) | 44.8 µM (inactive) | 32.7 µM (inactive) | 19.7 µM (inactive) | 22.1 µM (inactive) | 56.1 µM (inactive) | 81.1 µM (inactive) | 36.6 µM (inactive) | 51.1 µM (inactive) | 34.6 µM (inactive) | 25.3 µM (inactive) | 28.9 µM (inactive) | > 100 µM (inactive) | 15.5 µM (inactive) | 30.9 µM (inactive) | 32.7 µM (inactive)
O=C(N/C(=C\c1ccc([N+](=O)[O-])cc1)c1nc2c(O)nc(S)nc2[nH]1)c1ccccc1 | – | > 100 µM (inactive) | 99.5 µM (inactive) | – | > 100 µM (inactive) | > 100 µM (inactive) | > 100 µM (inactive) | > 100 µM (inactive) | > 100 µM (inactive) | – | > 100 µM (inactive) | > 100 µM (inactive) | > 100 µM (inactive) | > 100 µM (inactive) | > 100 µM (inactive) | – | 57.1 µM (inactive) | > 100 µM (inactive) | > 100 µM (inactive)
CC(=O)NNc1nc(C)c(C(=O)/C=C/c2ccccc2Cl)s1 | – | > 100 µM (inactive) | – | > 100 µM (inactive) | > 100 µM (inactive) | > 100 µM (inactive) | – | > 100 µM (inactive) | > 100 µM (inactive) | > 100 µM (inactive) | > 100 µM (inactive) | > 100 µM (inactive) | > 100 µM (inactive) | > 100 µM (inactive) | > 100 µM (inactive) | > 100 µM (inactive) | 43.5 µM (inactive) | > 100 µM (inactive) | > 100 µM (inactive)
OCCN(CCO)c1cccc(N(CCO)CCO)c1 | > 100 µM (inactive) | – | > 100 µM (inactive) | > 100 µM (inactive) | – | – | > 100 µM (inactive) | 72.8 µM (inactive) | > 100 µM (inactive) | > 100 µM (inactive) | > 100 µM (inactive) | > 100 µM (inactive) | – | > 100 µM (inactive) | > 100 µM (inactive) | – | > 100 µM (inactive) | > 100 µM (inactive) | > 100 µM (inactive)
O=C(CC1C(=O)Nc2ccccc2[S+]1[O-])Nc1ccc(Cl)cc1 (stereo not given) | – | 41.3 µM (inactive) | 49 µM (inactive) | > 100 µM (inactive) | > 100 µM (inactive) | 23.7 µM (inactive) | > 100 µM (inactive) | 37 µM (inactive) | > 100 µM (inactive) | 29.4 µM (inactive) | > 100 µM (inactive) | > 100 µM (inactive) | 72.4 µM (inactive) | 57.5 µM (inactive) | > 100 µM (inactive) | > 100 µM (inactive) | > 100 µM (inactive) | 35.2 µM (inactive) | > 100 µM (inactive)
